One series has as its target hENPP1 enzyme (Homo sapiens (Human), UniProt P22413). The experiment in a line: ENPP1 enzymatic inhibition in biochemical assay (TMP-pNP hydrolysis, OD405). The settings on record: ENPP1 enzymatic inhibition activity, TMP-pNP substrate, pH 9.5. The source says: ENPP1 was a transmembrane glycoprotein capable of hydrolyzing nucleotides and derivatives with a nucleotide-5′-monophosphate structure. ENPP1 was capable of hydrolyzing artificial thymidine 5′-monophosphate p-nitrophenyl ester (TMP-pNP) into nucleotide 5′-monophosphate and p-nitrophenol which was a chromogenic product. The formation amount of p-nitrophenol product could be directly measured by its absorbance at 405 nm, which was directly proportional to the enzyme activity.
The compound was dissolved in DMSO, with stock concentration of 1 mM, and diluted in a 4-fold serial gradient to make 10 concentration points. Echo was used to transfer 300 nL of gradient concentrations of compound to a 384-well assay plate (final concentration: starting at 10 μM, 4-fold serial gradient dilution, 10 concentration points). First, 15 μL of 0.2 ng/uL hENPP1 enzyme (2× final concentration) prepared in assay buffer (250 mM NaCl, 50 mM Tris, pH=9.5) was added to each well. Then, 15 μL of 400 μM TMP-pNP (2× final concentration) diluted in assay buffer was added. After incubating at 37° C. for 0.5 hrs, the OD405 nm value was read by the microplate reader. The percentage inhibition was calculated using the formula: % Inhibition Rate=(ODhigh signal control−ODsample well)/(ODhigh signal control−ODlow signal control)*100. The IC50 value was calculated using four-parameter fit. The high signal control was the DMSO group without inhibitors, and the low signal control was the blank control group.

Series [1] addresses ENPP1 in cultured MDA-MB-231 cells (Homo sapiens (Human), UniProt P22413). In words: ENPP1 enzymatic inhibition in cellular assay (MDA-MB-231 cells, TMP-pNP). As to conditions: ENPP1 enzymatic inhibition activity at the cellular level. The series is classed as cell-based. The method, then: ENPP1 was mainly expressed on the surface of cell membranes and could hydrolyze 2′3′-cGAMP into 5′-GMP and 5′-AMP. Similarly, ENPP1 could also hydrolyze the synthetic phosphate TMP-pNP, generating nucleotide-5′-monophosphate and the chromogenic product p-nitrophenol. Therefore, TMP-pNP was used as a substrate to reflect the enzyme activity of ENPP1 in cultured MDA-MB-231 cells. The amount of p-nitrophenol formed in the culture medium was determined by absorbance at 405 nim, which was directly proportional to the activity of ENPP1.
MDA-MB-231 cells was seeded with a density of 6000 per well in 384-well plate and cultured overnight (about 18 hrs) at 37° C. The compound was diluted into a 50× serial gradient dilution using an assay buffer (250 mM NaCl, 50 mM Tris, pH=9.5), starting at 500 μM, and diluted in a 4-fold serial gradient to make 10 concentration points. The cell culture medium was removed, and 10 μL of gradient concentrations of compounds were added to each well of the 384-well assay plate (final concentration: starting at 10 μM, 4-fold serial gradient dilution, with 10 concentration points). Then, 10 μL of 1 mM TMP-pNP (2× final concentration) dissolved in the assay buffer was added to the well. After incubating at 37° C. for 3 hrs, the OD405 nm value was read by the microplate reader. The percentage inhibition was calculated using the formula: % Inhibition Rate=(ODhigh signal control−ODsample well)/(ODhigh signal control−ODlow signal control)*100. The IC50 value was calculated using four-parameter fit. The high signal control was the DMSO group without inhibitors, and the low signal control was the blank control group.

Series [2] is described as follows: Pharmacokinetics in mice, compound concentration by LC-MS/MS. The series is classed as in vivo, CD-1 male mice. As to conditions: for AUC(0-t): read-out: AUC0-24 h; for Vd: read-out: VSS.
Where [3] appears, read: male, CD-1, mouse, plasma, 2 mg/kg, IV, 2 mpk.
[4] abbreviates: male, CD-1, mouse, plasma, 10 mg/kg, PO, 10 mpk.
[5] abbreviates: male, CD-1, mouse, plasma, 10 mg/kg, PO, 10 mpk vs IV, 2 mpk.
Where [6] appears, read: male, CD-1, mouse, plasma, 10 mg/kg, PO, 10 mpk, read-out: Cmax.
Where [7] appears, read: male, CD-1, mouse, plasma, 10 mg/kg, PO, 10 mpk, read-out: Tmax.

Where two headings read alike, the source gives them in different places. Bounds are passed on as bounds.

Sequence of ENPP1 in cultured MDA-MB-231 cells (P22413 whole entry): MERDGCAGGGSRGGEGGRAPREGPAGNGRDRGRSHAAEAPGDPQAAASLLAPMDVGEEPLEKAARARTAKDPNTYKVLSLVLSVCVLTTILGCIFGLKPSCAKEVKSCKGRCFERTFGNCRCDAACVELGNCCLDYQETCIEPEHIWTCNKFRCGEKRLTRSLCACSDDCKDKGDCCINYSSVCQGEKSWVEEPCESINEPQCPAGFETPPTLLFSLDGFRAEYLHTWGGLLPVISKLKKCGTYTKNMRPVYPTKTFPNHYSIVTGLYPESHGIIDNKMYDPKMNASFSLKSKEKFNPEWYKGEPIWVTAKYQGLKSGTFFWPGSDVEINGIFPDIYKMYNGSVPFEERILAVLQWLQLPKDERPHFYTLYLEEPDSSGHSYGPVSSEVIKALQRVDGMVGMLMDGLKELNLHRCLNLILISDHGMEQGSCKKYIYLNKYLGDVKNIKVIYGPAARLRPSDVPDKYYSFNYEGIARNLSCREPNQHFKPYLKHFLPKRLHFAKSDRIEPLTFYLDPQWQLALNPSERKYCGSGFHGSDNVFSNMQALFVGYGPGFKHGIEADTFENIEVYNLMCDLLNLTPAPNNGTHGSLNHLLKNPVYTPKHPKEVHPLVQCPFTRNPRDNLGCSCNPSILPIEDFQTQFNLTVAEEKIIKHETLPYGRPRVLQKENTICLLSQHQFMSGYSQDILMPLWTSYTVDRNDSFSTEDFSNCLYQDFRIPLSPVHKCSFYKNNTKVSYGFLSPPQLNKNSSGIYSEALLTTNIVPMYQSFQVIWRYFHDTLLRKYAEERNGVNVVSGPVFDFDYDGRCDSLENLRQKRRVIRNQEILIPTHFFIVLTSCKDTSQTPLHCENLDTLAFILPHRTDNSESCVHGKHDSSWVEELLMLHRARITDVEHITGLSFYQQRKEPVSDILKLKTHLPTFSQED
Sequence of hENPP1 enzyme (P22413 whole entry): as above

Consider `COc1ccc2c(ncc3ccc(=O)n(Cc4c(F)cc(S(N)(=O)=O)cc4F)c32)n1` [Compound 008, 3,5-difluoro-4-((8-methoxy-2-oxopyrido[2,3-h][1,6]naphthyridine-1(2H)-yl)methyl)benzenesulfonamide], for which the half-inhibitory concentration (IC50) – broadly, the concentration that gives 50% inhibition – against hENPP1 enzyme was in the range of 0.1 to 0.2 nM. Also, the EC50 (usually the concentration at which the effect is half-maximal) in series [1] was less than 0.5 nM. In series [2] (setting [3]), the clearance (usually the rate of elimination divided by the concentration) was 4.78 mL/min/kg; the half-life (as a rule, how long it takes for the measured level to halve) was 4.56 h; the AUC(0-t) is 7450 ng·h/mL; the Vd was found to be 1.52 L/kg. In series [2] (setting [4]), the half-life was 3.87 h and the AUC(0-t) was 7340 ng·h/mL. In addition, the bioavailability (commonly dose-corrected exposure relative to a reference, in per cent) in series [2] (setting [5]) turned out to be 20%. Further, the Cmax (as a rule, the maximum level reached in the sampled fluid or tissue) in series [2] (setting [6]) came out at 798 ng/mL. Moreover, the Tmax (commonly the time at which the peak concentration occurs) in series [2] (setting [7]) was 3.17 h.
The compound `COc1ccc2c(ncc3[nH]c(=O)c(=O)n(Cc4c(F)cc(S(N)(=O)=O)cc4F)c32)n1` [Compound 062, 3,5-difluoro-4-((8-methoxy-2,3-dioxo-3,4-dihydropyrazino[2,3-c][1,8]naphthyridine-1(2H)-yl)methyl)benzenesulfonamide] registered an IC50 against hENPP1 enzyme of less than 0.1 nM. The EC50 in series [1] is less than 0.5 nM.
Turning to `COc1ccc2c3c(cnc2n1)CCC(=O)N3Cc1c(F)cc(S(N)(=O)=O)cc1F` [Compound 054, 3,5-difluoro-4-((8-methoxy-2-oxo-3,4-dihydropyrido[2,3-h][1,6]naphthyridine-1(2H)-yl)methyl)benzenesulfonamide], the IC50 at hENPP1 enzyme was less than 0.1 nM. In series [2] (setting [3]), the clearance was 4.1 mL/min/kg, the half-life was 3.51 h, the AUC(0-t) was found to be 8090 ng·h/mL and the Vd came to 0.826 L/kg. Further, in series [2] (setting [4]), the half-life is 3.39 h and the AUC(0-t) was determined as 20100 ng·h/mL. This compound gave a bioavailability in series [2] (setting [5]) of 49.7%. In addition, the highest concentration (Cmax) in series [2] (setting [6]) came to 7900 ng/mL. In series [2] (setting [7]), the Tmax worked out at 0.5 h.
Regarding `COc1cnc2c(c1)ncc1[nH]c(=O)c(=O)n(Cc3c(F)cc(S(N)(=O)=O)cc3F)c12` [Compound 076], on hENPP1 enzyme, the IC50 lay within 0.1 to 0.2 nM.
On the same count and under the same terms, the result for `COc1nc2ncc3c(c2cc1F)N(Cc1c(F)cc(S(N)(=O)=O)cc1F)C(=O)CN3` [Compound 055] reads 0.1 to 0.2 nM.
In turn, `CCOc1ccc2c(ncc3ncc(=O)n(Cc4c(F)cc(S(N)(=O)=O)cc4F)c32)n1` [Compound 063] showed a concentration for half-maximal inhibition (IC50) against hENPP1 enzyme of 0.2 to 2 nM.
`COc1ccc2c3c(cnc2n1)COC(=O)N3Cc1ccc(S(N)(=O)=O)cc1` [Compound 067, 4-((8-methoxy-2-oxo-2H-[1,3]oxazino[5,4-c][1,8]naphthyridin-1(4H)-yl)methyl)benzenesulfonamide] had an IC50 against hENPP1 enzyme of 0.2 to 2 nM.
The same measure, in the same setting: next, `COc1ccc2c3c(cnc2n1)COC(=O)N3Cc1ccc(S(N)(=O)=O)cc1F` [Compound 071, 3-fluoro-4-((8-methoxy-2-oxo-2H-[1,3]oxazino[5,4-c][1,8]naphthyridin-1(4H)-yl)methyl)benzenesulfonamide]: 0.1 to 0.2 nM.
Compound `COc1ccc2c3c(cnc2n1)NCCN3Cc1c(F)cc(S(N)(=O)=O)cc1F` [Compound 066, 3,5-difluoro-4-((8-methoxy-3,4-dihydropyrazino[2,3-c][1,8]naphthyridine-1(2H)-yl)methyl)benzenesulfonamide] registered an IC50 against hENPP1 enzyme of 0.2 to 2 nM.
On hENPP1 enzyme, `COc1ccc2c3c(cnc2n1)CN(CC(F)(F)F)C(=O)N3Cc1c(F)cc(S(N)(=O)=O)cc1F` [Compound 056] returned an IC50 of 0.1 to 0.2 nM.
In turn, `COc1cc2ncc3c(c2cc1F)N(Cc1c(F)cc(S(N)(=O)=O)cc1F)C(=O)NC3` [Compound 007, 3,5-difluoro-4-((9-fluoro-8-methoxy-2-oxo-3,4-dihydropyrimido[5,4-c]quinolin-1(2H)-yl)methyl)benzenesulfonamide] returned a half-inhibitory concentration (IC50) against hENPP1 enzyme of 0.1 to 0.2 nM. In series [1], this compound registered an EC50 of less than 0.5 nM.
`COc1ccc2c(ncc3c2n(Cc2c(F)cc(S(N)(=O)=O)cc2F)c(=O)n3CC(F)(F)F)n1` [ZX-131, reference compound]: the half-inhibitory concentration (IC50) on hENPP1 enzyme lay within 0.1 to 0.2 nM. In series [1], this compound gave an EC50 of 0.5 to 2 nM. In series [2] (IV, 2 mpk), this compound came in with an AUC0-24 h of 4419 ng·h/mL, a CL of 7.2 mL/min/kg, a T1/2 of 6.01 h and a VSS of 3.212 L/kg. In addition, in series [2] (PO, 10 mpk), the AUC0-24 h worked out at 3274 ng·h/mL, the Cmax is recorded as 247 ng/mL, the T1/2 is given as 7.78 h and the time to peak (Tmax) came to 6 h. Besides, the F % in series [2] (PO, 10 mpk vs IV, 2 mpk) came to 15%.
Compound `COc1cc2ncc3c(c2cc1F)N(Cc1c(F)cc(S(N)(=O)=O)cc1F)C(=O)OC3` [Compound 048, 3,5-difluoro-4-((9-fluoro-8-methoxy-2-oxo-2H-[1,3]oxazino[5,4-c]quinolin-1(4H)-yl)methyl)benzenesulfonamide] yielded a 50% inhibitory concentration (IC50) on hENPP1 enzyme of less than 0.1 nM. Further, the EC50 in series [1] is less than 0.5 nM. Also, in series [2] (setting [3]), the clearance is 1.92 mL/min/kg, the half-life is 3.07 h, the AUC(0-t) was determined as 18300 ng·h/mL and the Vd amounted to 0.46 L/kg. Moreover, in series [2] (setting [4]), the half-life is 2.79 h and the AUC(0-t) came to 34800 ng·h/mL. Also, the bioavailability in series [2] (setting [5]) amounted to 38.1%. Further, the Cmax in series [2] (setting [6]) amounted to 4870 ng/mL. Besides, in series [2] (setting [7]), the time to peak (Tmax) turned out to be 0.583 h.
As to `COc1ccc2c3c(cnc2c1)N(C(=O)CO)CC(=O)N3Cc1c(F)cc(S(N)(=O)=O)cc1F` [Compound 072], at hENPP1 enzyme, the 50% inhibitory concentration (IC50) was in the range of 0.2 to 2 nM.
As to `COc1ccc2c3c(cnc2n1)COC(=O)N3Cc1ccc(S(N)(=O)=O)cn1` [Compound 070, 6-((8-methoxy-2-oxo-2H-[1,3]oxazino[5,4-c][1,8]naphthyridin-1(4H)-yl)methyl)pyridine-3-sulfonamide], the IC50 at hENPP1 enzyme is 0.1 to 0.2 nM.
Still for that read-out and setting: next, `COc1ccc2c3c(cnc2c1)COC(=O)N3Cc1c(F)cc(S(N)(=O)=O)cc1F` [Compound 030, 3,5-difluoro-4-((8-methoxy-2-oxo-2H-[1,3]oxazino[5,4-c]quinolin-1(4H)-yl)methyl)benzenesulfonamide]: 0.1 to 0.2 nM; `COc1ccc2c3c(cnc2n1)N(C(=O)OC(C)(C)C)CCN3Cc1c(F)cc(S(N)(=O)=O)cc1F` [Compound 050, tert-butyl 1-(2,6-difluoro-4-sulfamoylbenzyl)-8-methoxy-2,3-dihydropyrazino[2,3-c][1,8]naphthyridine-4(1H)-carboxylate]: 0.2 to 2 nM.
Same read-out and setting: the result for `COc1ccc2c(ncc3ncc(=O)n(Cc4c(F)cc(S(N)(=O)=O)cc4F)c32)n1` [Compound 002, 3,5-difluoro-4-((8-methoxy-2-oxopyrazino[2,3-c][1,8]naphthyridin-1(2H)-yl)methyl)benzenesulfonamide] reads 0.2 to 2 nM; that for `COc1ccc2c3c(cnc2n1)NCC(=O)N3Cc1c(F)cc(S(N)(=O)=O)cc1F` [Compound 051], 0.2 to 2 nM; that for `COc1ccc2c(ncc3c(=O)[nH]c(=O)n(Cc4c(F)cc(S(N)(=O)=O)cc4F)c32)n1` [Compound 017], 0.2 to 2 nM.
Still for that read-out and setting: the result for `COc1ccc2c3c(cnc2n1)NCC(=O)N3Cc1c(F)cc(S(N)(=O)=O)cc1F` [Compound 049, 3,5-difluoro-4-((8-methoxy-2-oxo-3,4-dihydropyrazino[2,3-c][1,8]naphthyridine-1(2H)-yl)methyl)benzenesulfonamide] reads 0.2 to 2 nM; that for `COc1ccc2c3c(cnc2n1)CN(C1CC1)C(=O)N3Cc1c(F)cc(S(N)(=O)=O)cc1F` [Compound 074], 0.1 to 0.2 nM.
On hENPP1 enzyme, `COc1cc2ncc3c(c2cc1OC)N(Cc1c(F)cc(S(N)(=O)=O)cc1F)C(=O)OC3` [Compound 031, 4-((8,9-dimethoxy-2-oxo-2H-[1,3]oxazino[5,4-c]quinolin-1(4H)-yl)methyl)-3,5-difluorobenzenesulfonamide] had an IC50 of 0.2 to 2 nM.

For the origin of these results see US20250115609A1, “AROMATIC HETEROCYCLIC COMPOUNDS, PREPARATION METHOD THEREFOR AND USES THEREOF” (Innovstone Therapeutics Limited, priority 2021, published 2025).
